Measured values published in patent US20110288007A1 (priority 2008, published 2011).

Assays:
Format in all cases: cell-based
Parameters in all cases: key: —: No effect (i.e. no significant difference between control [culture with no peptide] and culture with peptide); *: ~1 log effect (i.e. culture with peptide that's growth was ~1 log less than control); **: 1-2 log effect; ***: 2-4 log effect; ****: >4 log effect; “”: “Immediate effect” (i.e. loss of growth by at least 1 log compared to control immediately on addition of peptide [T = 0]
B. thailandensis E264 = system: B. thailandensis E264
[1] = system: Y. pseudotuberculosis IP32593
F. novicida U112 = system: F. novicida U112
F. tularensis LVS = system: F. tularensis LVS
S. aureus ATCC29213 = details: peptide 102 μg/mL, reduction of number of bacteria vs control
[2] = system: B. anthracis Vegetative UM23-Cl2
B. cepacia J2540 = system: B. cepacia J2540
[3] = system: Y. pseudotuberculosis YPIII

## GIGKFLHSAKKFGKAFVGEIMNS [Magainin II]
B. thailandensis E264
  Effect of peptides after 4 hours incubation with bacteria, B. thailandensis E264: —
[1]
  Effect of peptides after 4 hours incubation with bacteria, Y. pseudotuberculosis IP32593: —
F. novicida U112
  Effect of peptides after 4 hours incubation with bacteria, F. novicida U112: —
F. tularensis LVS
  Effect of peptides after 4 hours incubation with bacteria, F. tularensis LVS: —
S. aureus ATCC29213
  Effect of peptides after 4 hours incubation with bacteria, S. aureus ATCC29213: **** (>4 log effect)

## LLGDFFRKSKEKIGKEFKRIVQRIKDFLRNLVPRTES [LL-37]
[2]
  Effect of peptides after 4 hours incubation with bacteria, B. anthracis Vegetative UM23-Cl2: —
B. cepacia J2540
  Effect of peptides after 4 hours incubation with bacteria, B. cepacia J2540: —
B. thailandensis E264
  Effect of peptides after 4 hours incubation with bacteria, B. thailandensis E264: —
[1]
  Effect of peptides after 4 hours incubation with bacteria, Y. pseudotuberculosis IP32593: —
[3]
  Effect of peptides after 4 hours incubation with bacteria, Y. pseudotuberculosis YPIII: —
F. novicida U112
  Effect of peptides after 4 hours incubation with bacteria, F. novicida U112: —
F. tularensis LVS
  Effect of peptides after 4 hours incubation with bacteria, F. tularensis LVS: —
S. aureus ATCC29213
  Effect of peptides after 4 hours incubation with bacteria, S. aureus ATCC29213: —
